Measured values as given in patent publication US20260262643A1, “HERBICIDAL BENZOXAZINES” (FMC CORPORATION, priority 2022, published 2026).

Assays:
Assay in all cases: Test A preemergence
Conditions in all cases: 1000 g ai/ha, 0 to 100 scale (0 no effect, 100 complete control), 10 days
barnyardgrass = format: in vivo, Echinochloa crusgalli
In short: (§1)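 Weeds and crops in loam–sand blend were sprayed preemergence onto soil or postemergence at 2–10 cm (one- to two-leaf stage). Test chemicals were in a non-phytotoxic solvent with surfactant. After 10 days in the greenhouse, injury was rated visually against untreated controls on a 0 (no effect) to 100 (complete control) scale.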

ryegrass, Italian = format: in vivo, Lolium multiflorum
In short: as §1

ragweed = format: in vivo, Ambrosia artemisiifolia
In short: as §1

kochia = format: in vivo, Bassia scoparia
In short: as §1

Pigweed, Redroot = format: in vivo, Amaranthus retroflexus
From the text: Seeds of plant species selected from barnyardgrass (Echinochloa crusgalli), blackgrass (Alopecurus myosuroides), corn (Zea mays), foxtail, giant (giant foxtail, Setaria faberi), goosegrass (Eleusine indica), kochia (Bassia scoparia), oat, wild (wild oat, Avena fatua), pigweed, palmer (palmer amaranth, palmer pigweed, Amaranthus palmeri), Pigweed, Redroot (redroot pigweed, Amaranthus retroflexus), ragweed (common ragweed, Ambrosia artemisiifolia), ryegrass, Italian (italian ryegrass, Lolium multiflorum), soybean (Glycine max), and wheat (Triticum aestivum) were planted into a blend of loam soil and sand and treated preemergence with a directed soil spray using test chemicals formulated in a non-phytotoxic solvent mixture which included a surfactant. At the same time, plants selected from these crops and weed species and also galium (catchweed bedstraw, Galium aparine) and horseweed (Erigeron canadensis) were planted in pots containing the same blend of loam soil and sand and treated with postemergence applications of test chemicals formulated in the same manner. Plants ranged in height from 2 to 10 cm and were in the one- to two-leaf stage for the postemergence treatment. Treated plants and untreated controls were maintained in a greenhouse for 10 days, after which time all treated plants were compared to untreated controls and visually evaluated for injury. Plant response ratings, summarized in Table A, are based on a 0 to 100 scale where 0 is no effect and 100 is complete control. A dash (-) response means no test result.

foxtail, giant = format: in vivo, Setaria faberi
In short: as §1

SMILES	Plant response rating, Barnyardgrass (barnyardgrass)	Plant response rating, Ryegrass, Italian (ryegrass, Italian)	Plant response rating, Ragweed (ragweed)	Plant response rating, Kochia (kochia)	Plant response rating, Pigweed, Redroot (Pigweed, Redroot)	Plant response rating, Foxtail, Giant (foxtail, giant)
CCC1CN(C(=O)c2ccnc(-n3cncn3)c2)c2ccc(Cl)cc2O1 (stereo not drawn) [Compound 16]	0	0	0	20	20	0
CCC1CN(C(=O)c2ccnc(-n3cncn3)c2)c2c(Cl)cccc2O1 (stereo not drawn) [Compound 14]	0	20	0	30	10	30
CCC1CN(C(=O)c2ccnc(-n3cncn3)c2)c2cccc(Cl)c2O1 (single isomer, unassigned) [Compound 4]	0	0	0	0	0	0
